Laboratory results published in patent publication US10519177B2, “Heterocyclic compounds and uses thereof” (Plexxikon Inc., priority 2013, dated 2019).

Columns and labels:
BRD4-BD12 (1-477) = BRD4-BD12 (1-477) (Homo sapiens (Human), UniProt O60885); assay: Alphascreen binding assay BRD4-BD12; conditions: BRD4(1 2) H4; read-out: Biochemical activity (IC50 μM) BRD4(1 2) H4
In short: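 First, compound was preincubated 1 h at room temperature with the His-tagged BRD4 protein (BD1 44-164 or tandem BD12 1-477) and acetylated H4 peptide. Next, donor and acceptor beads were added at 7.5 μg/ml final. After 30 min, AlphaScreen emission was recorded.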

MV-4-11 cells = assay: Oncology cell growth assay MV-4-11 (CellTiter Glo); type: cell-based; conditions: Homo sapiens, MV4-11, 72 h; MV-4-11, 3d growth; read-out: Cell activity (IC50 μM) MV-4-11 3d-Growth
In short: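 MV-4-11 AML cells (MLL-AF4), 3000 per well, exposed to 8-point 1:3 compound titration from 10 μM top concentration (0.2% DMSO) for 72 h. Viability by CellTiter Glo luminescence, normalized to DMSO controls; pIC50 from four-parameter curve fit.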

SMILES | IC50 (BRD4-BD12 (1-477)) | IC50 (MV-4-11 cells)
Cc1noc(C)c1-c1cnc2c(-c3ccc(C(C)(C)C#N)cc3)cn(CC3CCC(F)(F)CC3)c2c1 [P-0905, 2-[4-[1-[(4,4-difluorocyclohexyl)methyl]-6-(3,5-dimethylisoxazol-4-yl)pyrrolo[3,2-b]pyridin-3-yl]phenyl]-2-methyl-propanenitrile] | < 1 µM | < 1 µM
COC(=O)c1ccc(-c2cn(Cc3ncccc3F)c3cc(-c4c(C)noc4C)cnc23)cc1 [P-0948, methyl 4-[6-(3,5-dimethylisoxazol-4-yl)-1-[(3-fluoro-2-pyridyl)methyl]pyrrolo[3,2-b]pyridin-3-yl]benzoate] | < 1 µM | < 1 µM
Cc1ccc(-c2cn([C@@H](C)c3ccccn3)c3cc(-c4c(C)noc4C)cnc23)cc1 [P-0900, 3,5-dimethyl-4-[3-(p-tolyl)-1-[(1S)-1-(2-pyridyl)ethyl]pyrrolo[3,2-b]pyridin-6-yl]isoxazole] | < 1 µM | < 1 µM
Cc1ccc(-c2cn([C@@H](C)c3ccccn3)c3cc(-c4c(C)noc4C)cnc23)cn1 [P-1019, 3,5-dimethyl-4-[3-(6-methyl-3-pyridyl)-1-[(1S)-1-(2-pyridyl)ethyl]pyrrolo[3,2-b]pyridin-6-yl]isoxazole] | < 1 µM | < 1 µM
COC(=O)c1ccc(-c2cn(CC3(C)CCCCC3)c3cc(-c4c(C)noc4C)cnc23)cc1 [P-0914, methyl 4-[6-(3,5-dimethylisoxazol-4-yl)-1-[(1-methylcyclohexyl)methyl]pyrrolo [3,2-b]pyridin-3-yl]benzoate] | < 1 µM | 1 to 10 µM
Cc1noc(C)c1-c1cnc2c(-c3cccc(NS(C)(=O)=O)c3)cn([C@@H](C)c3ccccn3)c2c1 [P-0981, N-[3-[6-(3,5-dimethylisoxazol-4-yl)-1-[(1S)-1-(2-pyridyl)ethyl]pyrrolo[3,2-b]pyridin-3-yl]phenyl]methanesulfonamide] | < 1 µM | < 1 µM
Cc1noc(C)c1-c1cnc2c(-c3ccc(C(=O)O)cc3)cn(C(c3ccccn3)C3CCCCC3)c2c1 (stereo not shown) [P-1014, 4-[1-[cyclohexyl(2-pyridyl)methyl]-6-(3,5-dimethylisoxazol-4-yl)pyrrolo[3,2-b]pyridin-3-yl]benzoic acid] | < 1 µM | < 1 µM
COC(=O)c1ccc(-c2cn(C(c3ccccn3)C3CCCCC3)c3cc(-c4c(C)noc4C)cnc23)cc1 (stereo not shown) [P-1016, methyl 4-[1-[cyclohexyl(2-pyridyl)methyl]-6-(3,5-dimethylisoxazol-4-yl)pyrrolo[3,2-b]pyridin-3-yl]benzoate] | < 1 µM | < 1 µM
Cc1noc(C)c1-c1cnc2c(-c3ccc(C4(C(=O)O)CC4)cc3)cn([C@@H](C)c3ccccn3)c2c1 [P-0955, 1-[4-[6-(3,5-dimethylisoxazol-4-yl)-1-[(1S)-1-(2-pyridyl)ethyl]pyrrolo[3,2-b]pyridin-3-yl]phenyl]cyclopropanecarboxylic acid] | < 1 µM | < 1 µM
CNC(=O)c1ccc(-c2cn([C@@H](C)c3ccccn3)c3cc(-c4c(C)noc4C)cnc23)cn1 [P-0978, 5-[6-(3,5-dimethylisoxazol-4-yl)-1-[(1S)-1-(2-pyridyl)ethyl]pyrrolo[3,2-b]pyridin-3-yl]-N-methyl-pyridine-2-carboxamide] | < 1 µM | < 1 µM
COC(=O)c1cc(-c2cn([C@@H](C)c3ccccn3)c3cc(-c4c(C)noc4C)cnc23)ccc1C [P-0998, methyl 5-[6-(3,5-dimethylisoxazol-4-yl)-1-[(1S)-1-(2-pyridyl)ethyl]pyrrolo[3,2-b]pyridin-3-yl]-2-methyl-benzoate] | < 1 µM | < 1 µM
Cc1noc(C)c1-c1cnc2c(I)cn(Cc3ccncc3)c2c1 [P-0935, 4-[3-iodo-1-(4-pyridylmethyl)pyrrolo[3,2-b]pyridin-6-yl]-3,5-dimethyl-isoxazole] | < 1 µM | < 1 µM
COc1cc(-c2cn([C@@H](C)c3ccccn3)c3cc(-c4c(C)noc4C)cnc23)ccc1C(=O)O [P-0938, 4-[6-(3,5-dimethylisoxazol-4-yl)-1-[(1S)-1-(2-pyridyl)ethyl]pyrrolo[3,2-b]pyridin-3-yl]-2-methoxy-benzoic acid] | < 1 µM | < 1 µM
COC(=O)c1ccc(-c2cn(Cc3cnc(C)s3)c3cc(-c4c(C)noc4C)cnc23)cc1 [P-0957, methyl 4-[6-(3,5-dimethylisoxazol-4-yl)-1-[(2-methylthiazol-5-yl)methyl]pyrrolo[3,2-b]pyridin-3-yl]benzoate] | < 1 µM | < 1 µM
Cc1noc(C)c1-c1cnc2c(-c3ccc(C(=O)O)c(F)c3)cn(C(c3ccccn3)C3CCCC3)c2c1 (stereo not shown) [P-1037, 4-[1-[cyclopentyl(2-pyridyl)methyl]-6-(3,5-dimethylisoxazol-4-yl)pyrrolo[3,2-b]pyridin-3-yl]-2-fluoro-benzoic acid] | < 1 µM | < 1 µM
COC(=O)Cc1ccc(-c2cn(Cc3ccccn3)c3cc(-c4c(C)noc4C)cnc23)cc1 [P-0965, methyl 2-[4-[6-(3,5-dimethylisoxazol-4-yl)-1-(2-pyridylmethyl)pyrrolo[3,2-b]pyridin-3-yl]phenyl]acetate] | < 1 µM | < 1 µM
CNS(=O)(=O)c1cccc(-c2cn([C@@H](C)c3ccccn3)c3cc(-c4c(C)noc4C)cnc23)c1 [P-0980, 3-[6-(3,5-dimethylisoxazol-4-yl)-1-[(1S)-1-(2-pyridyl)ethyl]pyrrolo[3,2-b]pyridin-3-yl]-N-methyl-benzenesulfonamide] | < 1 µM | < 1 µM
Cc1noc(C)c1-c1cnc2c(-c3ccc(NS(C)(=O)=O)cc3)cn([C@@H](C)c3ccccn3)c2c1 [P-0979, N-[4-[6-(3,5-dimethylisoxazol-4-yl)-1-[(1S)-1-(2-pyridyl)ethyl]pyrrolo[3,2-b]pyridin-3-yl]phenyl]methanesulfonamide] | < 1 µM | < 1 µM
CC[C@@H](c1ccccn1)n1cc(-c2ccc(CC(=O)O)cc2)c2ncc(-c3c(C)noc3C)cc21 [P-0986, 2-[4-[6-(3,5-dimethylisoxazol-4-yl)-1-[(1S)-1-(2-pyridyl)propyl]pyrrolo[3,2-b]pyridin-3-yl]phenyl]acetic acid] | < 1 µM | < 1 µM
CC[C@H](c1ccccn1)n1cc(-c2ccc(C(=O)O)cc2)c2ncc(-c3c(C)noc3C)cc21 [P-0960, 4-[6-(3,5-dimethylisoxazol-4-yl)-1-[(1R)-1-(2-pyridyl)propyl]pyrrolo[3,2-b]pyridin-3-yl]benzoic acid] | < 1 µM | < 1 µM
Cc1noc(C)c1-c1cnc2c(-c3ccc(CC(=O)O)cc3)cn(C(c3ccccn3)C3CCC3)c2c1 (stereo not shown) [P-1015, 2-[4-[1-[cyclobutyl(2-pyridyl)methyl]-6-(3,5-dimethylisoxazol-4-yl)pyrrolo[3,2-b]pyridin-3-yl]phenyl]acetic acid] | < 1 µM | < 1 µM
Cc1noc(C)c1-c1cnc2c(-c3ccc(C#N)nc3)cn(C(c3ccccc3)c3ccccn3)c2c1 (stereo not shown) [P-0907, 5-[6-(3,5-dimethylisoxazol-4-yl)-1-[phenyl(2-pyridyl)methyl]pyrrolo[3,2-b]pyridin-3-yl]pyridine-2-carbonitrile] | < 1 µM | < 1 µM
Cc1noc(C)c1-c1ccc2c(-c3cnn(CC(F)(F)F)c3)cn(C(c3ccccc3)c3ccccn3)c2c1 (stereo not shown) [P-1046, 3,5-dimethyl-4-[1-[phenyl(2-pyridyl)methyl]-3-[1-(2,2,2-trifluoroethyl)pyrazol-4-yl]indol-6-yl]isoxazole] | < 1 µM | < 1 µM
COC(=O)c1ccc(-c2cn(Cc3cccc(C)n3)c3cc(-c4c(C)noc4C)cnc23)cc1 [P-0915, methyl 4-[6-(3,5-dimethylisoxazol-4-yl)-1-[(6-methyl-2-pyridyl)methyl]pyrrolo[3,2-b]pyridin-3-yl]benzoate] | < 1 µM | < 1 µM
COc1ccccc1Cn1cc(I)c2ncc(-c3c(C)noc3C)cc21 [P-0932, 4-[3-iodo-1-[(2-methoxyphenyl)methyl]pyrrolo[3,2-b]pyridin-6-yl]-3,5-dimethyl-isoxazole] | < 1 µM | < 1 µM
COc1ncc(-c2cn(C(c3ccccc3)c3ccccn3)c3cc(-c4c(C)noc4C)ccc23)cn1 (stereo not shown) [P-1039, 4-[3-(2-methoxypyrimidin-5-yl)-1-[phenyl(2-pyridyl)methyl]indol-6-yl]-3,5-dimethyl-isoxazole] | < 1 µM | < 1 µM
Cc1noc(C)c1-c1cnc2c(-c3ccc(C4(C(=O)O)CC4)cc3)cn(CC3(C)CCOCC3)c2c1 [P-0943, 1-[4-[6-(3,5-dimethylisoxazol-4-yl)-1-[(4-methyltetrahydropyran-4-yl)methyl]pyrrolo[3,2-b]pyridin-3-yl]phenyl]cyclopropanecarboxylic acid] | < 1 µM | 1 to 10 µM
Cc1noc(C)c1-c1ccc2c(-c3cccc(CC(=O)O)c3)cn(C(c3ccccc3)c3ccccn3)c2c1 (stereo not shown) [P-1050, 2-[3-[6-(3,5-dimethylisoxazol-4-yl)-1-[phenyl(2-pyridyl)methyl]indol-3-yl]phenyl]acetic acid] | < 1 µM | < 1 µM
Cc1noc(C)c1-c1cnc2c(-c3ccc(C(C)(C)C(=O)O)cc3)cn([C@@H](C)c3ccccn3)c2c1 [P-1021, 2-[4-[6-(3,5-dimethylisoxazol-4-yl)-1-[(1S)-1-(2-pyridyl)ethyl]pyrrolo[3,2-b]pyridin-3-yl]phenyl]-2-methyl-propanoic acid] | < 1 µM | < 1 µM
